Source: patent US20250129067A1 (Progentos Therapeutics, Inc., priority 2021, published 2025)

Tests used:
PDGFRα = PDGFRα (Homo sapiens (Human), UniProt P16234); experiment: PDGFRα kinase enzyme assay (Promega PDGFRα Kinase Enzyme System, ADP-Glo); assay type: biochemical; conditions: 11-point dose response, 10,000 nM to 0.169 nM; 150 uM ATP; BLQ = below limit of quantitation; read-out: IC50 Values on PDGFRα Kinase Inhibition, IC50
In short: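 Purified PDGFRα protein (20 ng) reacted with test compound per the Promega kinase system protocol. ADP formed was measured by ADP-Glo luminescence against a standard curve, giving IC50.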

[1] = system: Oligodendrocyte progenitor cells (OPCs); experiment: In vitro OPC differentiation assay, GPR17 expression (immunocytochemistry); conditions: 72 hours, fold change over vehicle; for GPR17 Fold Induction (Over Vehicle; 3 μM): 3 μM (10× concentration, final 0.3 μM)

Sequence of PDGFRα (P16234 24-1089): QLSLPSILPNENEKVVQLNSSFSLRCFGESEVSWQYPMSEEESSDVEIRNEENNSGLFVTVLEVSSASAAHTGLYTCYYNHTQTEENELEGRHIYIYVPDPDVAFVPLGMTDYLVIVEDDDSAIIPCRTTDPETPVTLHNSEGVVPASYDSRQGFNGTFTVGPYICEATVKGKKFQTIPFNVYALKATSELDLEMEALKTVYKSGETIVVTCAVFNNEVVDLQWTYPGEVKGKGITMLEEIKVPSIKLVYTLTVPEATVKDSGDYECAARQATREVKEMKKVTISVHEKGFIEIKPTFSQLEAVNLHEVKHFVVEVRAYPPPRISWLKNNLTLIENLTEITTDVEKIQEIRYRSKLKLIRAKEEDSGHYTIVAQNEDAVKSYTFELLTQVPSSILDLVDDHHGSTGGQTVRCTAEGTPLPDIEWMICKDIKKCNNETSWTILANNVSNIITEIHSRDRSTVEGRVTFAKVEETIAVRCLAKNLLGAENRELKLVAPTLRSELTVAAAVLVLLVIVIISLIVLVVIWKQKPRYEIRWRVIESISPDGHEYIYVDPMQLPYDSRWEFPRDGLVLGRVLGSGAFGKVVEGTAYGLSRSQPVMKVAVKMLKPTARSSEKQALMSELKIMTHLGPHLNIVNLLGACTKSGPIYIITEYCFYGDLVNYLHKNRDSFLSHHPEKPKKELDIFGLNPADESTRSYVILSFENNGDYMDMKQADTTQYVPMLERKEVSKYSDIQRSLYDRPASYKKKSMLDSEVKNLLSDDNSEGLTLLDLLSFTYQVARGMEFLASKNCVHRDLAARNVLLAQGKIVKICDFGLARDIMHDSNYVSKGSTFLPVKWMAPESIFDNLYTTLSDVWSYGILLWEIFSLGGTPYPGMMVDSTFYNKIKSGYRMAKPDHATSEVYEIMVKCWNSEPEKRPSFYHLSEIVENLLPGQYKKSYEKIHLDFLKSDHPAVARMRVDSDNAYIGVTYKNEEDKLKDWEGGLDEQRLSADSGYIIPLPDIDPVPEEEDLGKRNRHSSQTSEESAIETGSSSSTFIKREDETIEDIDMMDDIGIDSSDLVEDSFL

Structure (SMILES)	IC50 (PDGFRα) [µM]	GPR17 Fold Induction (Over Vehicle; 3 μM) [1]	GPR17 Fold Induction (Over Vehicle; 5 μM) ([1]; 5 μM (10× concentration, final 0.5 μM))
C[C@@H](OC(=O)N1CCCN(c2cnc3nc(-c4cnn(C)c4)ccn23)CC1)c1ccccc1 [Compound 117, (R)-1-phenylethyl 4-(7-(1-methyl-1H-pyrazol-4-yl)imidazo[1,2-a]pyrimidin-3-yl)-1,4-diazepane-1-carboxylate]	> 10	1.39	
Cn1cc(-c2ccc3c(N4CCN(c5cnc(Cc6ccccc6)cn5)CC4)cnn3c2)cn1 [Compound 303, 3-(4-(5-benzylpyrazin-2-yl)piperazin-1-yl)-6-(1-methyl-1H-pyrazol-4-yl)pyrazolo[1,5-a]pyridine]	> 10	2.52	
COCCn1cnc(-c2ccc3c(N4CCN(C(=O)OC(C)(C)C)CC4)cnn3c2)c1 [Compound 227, tert-butyl 4-(6-(1-(2-methoxyethyl)-1H-imidazol-4-yl)pyrazolo[1,5-a]pyridin-3-yl)piperazine-1-carboxylate]	0.268	9.02	
CN(Cc1ccccc1)C(=O)C1CCN(c2cnn3cc(-c4cnn(C)c4)ccc23)CC1 [Compound 147, N-benzyl-N-methyl-1-(6-(1-methyl-1H-pyrazol-4-yl)pyrazolo[1,5-a]pyridin-3-yl)piperidine-4-carboxamide]	6.72	2.23	
Cn1cc(-c2ccc3c(N4CC(Nc5ncc(Cc6ccccc6)cn5)C4)cnn3c2)cn1 [Compound 149, 5-benzyl-N-(1-(6-(1-methyl-1H-pyrazol-4-yl)pyrazolo[1,5-a]pyridin-3-yl)azetidin-3-yl)pyrimidin-2-amine]	> 10	8.88	
Cn1cc(-c2ccc3c(C4=CCC(C(=O)OCc5ccccc5)C4)cnn3c2)cn1 (stereo not drawn) [Compound 133, benzyl 3-[6-(1-methylpyrazol-4-yl)pyrazolo[1,5-a]pyridin-3-yl]cyclopent-3-ene-1-carboxylate]	1.44	3.02	
Cn1cc(-c2ccc3c(N4CCN(c5cnc(Cc6ccccc6)nc5)CC4)cnn3c2)cn1 [Compound 70, 3-[4-(2-benzylpyrimidin-5-yl)piperazin-1-yl]-6-(1-methyl-1H-pyrazol-4-yl)pyrazolo[1,5-a]pyridine]	6.7	3.72	
Cn1cc(-c2ccc3c(N4CCN(c5nnc(Cc6ccccc6)s5)CC4)cnn3c2)cn1 [Compound 306, 2-benzyl-5-(4-(6-(1-methyl-1H-pyrazol-4-yl)pyrazolo[1,5-a]pyridin-3-yl)piperazin-1-yl)-1,3,4-thiadiazole]	0.00231	4.37	
Cn1cc(-c2ccc3c(N4CCN(c5ncc(CCc6ccccc6)cn5)CC4)cnn3c2)cn1 [Compound 152, 6-(1-methyl-1H-pyrazol-4-yl)-3-(4-(5-phenethylpyrimidin-2-yl)piperazin-1-yl)pyrazolo[1,5-a]pyridine]	7.19	4.33	
Cn1cc(-c2ccc3c(N4CCN(c5ncc(S(=O)(=O)c6ccccc6)cn5)CC4)cnn3c2)cn1 [Compound 186, 6-(1-methyl-1H-pyrazol-4-yl)-3-(4-(5-(phenylsulfonyl)pyrimidin-2-yl)piperazin-1-yl)pyrazolo[1,5-a]pyridine]	> 10	1.26	
Cn1cc(-c2ccc3c(N4CCN(c5ncc(Cn6ccc7ccccc76)cn5)CC4)cnn3c2)cn1 [Compound 191, 3-(4-(5-((1H-indol-1-yl)methyl)pyrimidin-2-yl)piperazin-1-yl)-6-(1-methyl-1H-pyrazol-4-yl)pyrazolo[1,5-a]pyridine]	0.287	23.57	
CC(C)(C)OC(=O)N1CCN(c2cnn3cc(-c4cncn4CCCN4CCOCC4)ccc23)CC1 [Compound 232, tert-butyl 4-(6-(1-(3-morpholinopropyl)-1H-imidazol-5-yl)pyrazolo[1,5-a]pyridin-3-yl)piperazine-1-carboxylate]	> 10	1.03	
Cn1cc(-c2ccc3c(N4CCN(c5ncc(C(F)(F)c6ccc(F)cc6)cn5)CC4)cnn3c2)cn1 [Compound 262, 3-(4-(5-(difluoro (4-fluorophenyl)methyl)pyrimidin-2-yl)piperazin-1-yl)-6-(1-methyl-1H-pyrazol-4-yl)pyrazolo[1,5-a]pyridine]	> 10	2.61	
Cc1ccc(CN2CCN(c3cnn4cc(-c5cnn(C)c5)ccc34)CC2)o1 [Compound 201, 6-(1-methyl-1H-pyrazol-4-yl)-3-(4-((5-methylfuran-2-yl)methyl)piperazin-1-yl)pyrazolo[1,5-a]pyridine]	> 10	1.30	
Cn1cc(-c2ccc3c(C(O)CCc4ncc(Cc5ccccc5)cn4)cnn3c2)cn1 (stereo not drawn) [Compound 299, 3-(5-benzylpyrimidin-2-yl)-1-(6-(1-methyl-1H-pyrazol-4-yl)pyrazolo[1,5-a]pyridin-3-yl)propan-1-ol]	> 10	1.43	
Cc1cnc(COC(=O)N2CCN(c3cnn4cc(-c5cnn(C)c5)ccc34)CC2)o1 [Compound 199, (5-methyloxazol-2-yl)methyl 4-(6-(1-methyl-1H-pyrazol-4-yl)pyrazolo[1,5-a]pyridin-3-yl)piperazine-1-carboxylate]	1.24	4.08	
Cn1cc(-c2ccc3c(N4CCCN(C(=O)OC(C)(C)C)CC4)cnn3c2)cn1 [Compound 40, tert-butyl 4-(6-(1-methyl-1H-pyrazol-4-yl)pyrazolo[1,5-a]pyridin-3-yl)-1,4-diazepane-1-carboxylate]	2.42	1.27	
CC(O)C(O)c1cnc(N2CCN(c3cnn4cc(-c5cnn(C)c5)ccc34)CC2)nc1 (stereo not drawn) [Compound 286, 1-(2-(4-(6-(1-methyl-1H-pyrazol-4-yl)pyrazolo[1,5-a]pyridin-3-yl)piperazin-1-yl)pyrimidin-5-yl)propane-1,2-diol]	1.79	4.95	
Cn1cc(-c2ccc3c(N4CCN(c5ncc(CN6CCCCC6)cn5)CC4)cnn3c2)cn1 [Compound 42, 6-(1-methyl-1H-pyrazol-4-yl)-3-{4-[5-(piperidin-1-ylmethyl)pyrimidin-2-yl]piperazin-1-yl}pyrazolo[1,5-a]pyridine]	8.25	10.21	4.64
CN1CCC(COC(=O)N2CCN(c3cnn4cc(-c5cnn(C)c5)ccc34)CC2)CC1 [Compound 20, (1-methylpiperidin-4-yl)methyl 4-[6-(1-methyl-1H-pyrazol-4-yl)pyrazolo[1,5-a]pyridin-3-yl]piperazine-1-carboxylate]	> 10	0.58	
CN(CCN(C)c1cnc2nc(C3CCOC3)ccn12)C(=O)OC(C)(C)C (stereo not drawn) [Compound 98]	> 10	0.98	
Cc1nn(C)c(C)c1-c1ccc2c(N3CCN(C(=O)OC(C)(C)C)CC3)cnn2c1 [Compound 222, tert-butyl 4-(6-(1,3,5-trimethyl-1H-pyrazol-4-yl)pyrazolo[1,5-a]pyridin-3-yl)piperazine-1-carboxylate]	0.912	3.74	
